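Test compounds were applied to cells in 96-well plates for 48 hours at 5 doses. Here, GI50 denotes the concentration required for 50% inhibition of growth.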 Calls of active or inactive are those of the source. Rule as the data show it: active = GI50 up to about 1.1 µM and inactive = higher.
Assays:
Experiment in all cases: NCI-60 cell line screen, 48 h
SNB-78 = test system: SNB-78
M19-MEL = test system: M19-MEL
DLD-1 = test system: DLD-1
KM-20L2 = test system: KM-20L2
HOP-18 = test system: HOP-18
LXFL 529 = test system: LXFL 529
BT-549 = test system: BT-549
DMS-114 = test system: DMS-114
RXF 631 = test system: RXF 631

Measured: GI50

CC1NC(=O)CC(c2ccccc2)N(N=O)C1c1ccccc1 (stereo not drawn)
inactive: SNB-78 35.4 µM | M19-MEL 55.7 µM | DLD-1 44.8 µM | KM-20L2 21.4 µM | HOP-18 52.2 µM

O=C1NC(=O)C2C(=O)NC(=O)C1C2(c1ccccc1)c1ccc(Cl)cc1 (stereo not drawn)
inactive: SNB-78 > 100 µM | M19-MEL > 100 µM | LXFL 529 > 100 µM | DLD-1 > 100 µM | KM-20L2 > 100 µM

COC(=O)C1=C(O)C(C(=O)OC)C2CC(=O)CC1C2(C)C (stereo not drawn)
inactive: BT-549 > 100 µM

CN(/N=C/c1cccc2cccnc12)c1ccccc1
inactive: SNB-78 > 100 µM | M19-MEL > 100 µM | DMS-114 > 100 µM | LXFL 529 89.3 µM | DLD-1 > 100 µM | KM-20L2 > 100 µM | HOP-18 > 100 µM

N#Cc1ccccc1NC(=O)C(=O)c1c(O)c2ccccc2oc1=O
inactive: BT-549 > 100 µM

COc1ccc(C2SCC(=O)N2NC(=O)c2ccc(NC(C)=O)cc2)c(OC)c1 (stereo not drawn)
inactive: BT-549 > 100 µM

O=C(Nc1c(Cl)cc([N+](=O)[O-])cc1Cl)C(=O)C(C1OC(=O)c2ccccc21)[N+](=O)[O-] (stereo not drawn)
inactive: RXF 631 > 100 µM | SNB-78 41.2 µM | M19-MEL > 100 µM | DMS-114 92.3 µM | LXFL 529 > 100 µM | DLD-1 > 100 µM | KM-20L2 > 100 µM

CC1=NOC(=O)C1/N=N/c1ccc(Br)c(C)c1 (stereo not drawn)
inactive: SNB-78 26.4 µM | M19-MEL 18.6 µM | DMS-114 15.6 µM | LXFL 529 15.5 µM | DLD-1 24.4 µM | KM-20L2 33.7 µM | HOP-18 3.31 µM

CC1OC2OC3C(OCC(O)C3O)OC(=O)[C@]34CCC(C)(C)CC3C3=CCC5[C@@]6(C)C[C@H](O)[C@H](OC7OC(CO)C(O)C(O)C7OC7OCC(OC(=O)CC(C)(O)CC(=O)OC1C(O)C2O)C(O)C7O)[C@@](C)(CO)C6CC[C@@]5(C)[C@]3(C)CC4 (stereo partly drawn)
inactive: BT-549 10.2 µM

NC12CC3CC(C1)CC(Cl)(C3)C2
inactive: RXF 631 > 100 µM | SNB-78 > 100 µM | M19-MEL > 100 µM | DMS-114 > 100 µM | LXFL 529 > 100 µM | DLD-1 > 100 µM | KM-20L2 > 100 µM

CC(C)C[P+](c1ccccc1)(c1ccccc1)c1ccccc1
inactive: BT-549 4.75 µM

CCOC(=O)c1nc2ccccc2nc1Oc1ccc(OC)cc1
inactive: BT-549 > 100 µM

Cc1ccc(S(=O)(=O)NCC2CCCCC2=O)cc1 (stereo not drawn)
inactive: SNB-78 > 100 µM | M19-MEL > 100 µM | DMS-114 51.9 µM | LXFL 529 > 100 µM | KM-20L2 > 100 µM | HOP-18 > 100 µM

O=C(NCCCCCCNCc1cccc2ccccc12)Nc1cccc2ccccc12
inactive: BT-549 > 100 µM

CCC1(C(=O)OC(C)(C)C)OC12C(C)CCCC2C (stereo not drawn)
inactive: BT-549 > 100 µM

CC1=CC(=O)/C(=C/NC(=S)c2ccncc2)C(=O)O1
inactive: BT-549 > 100 µM

O=C1CCSSCCC(=O)NCCN1
inactive: BT-549 > 100 µM

CSC(=S)OC1CC(n2cnc3c(NC(=O)c4ccccc4)ncnc32)OC1CO[Si](C)(C)C(C)(C)C (stereo not drawn)
inactive: BT-549 16.5 µM

C/C(=C\COc1ccc2ccc(=O)oc2c1)CCC(=O)C(C)(C)O
inactive: BT-549 18.1 µM

CC(=O)OCC1OC(n2cc([N+](=O)[O-])c(=O)[nH]c2=O)C(OC(C)=O)C(OC(C)=O)C1OC(C)=O (stereo not drawn)
inactive: M19-MEL > 100 µM | DMS-114 > 100 µM | LXFL 529 > 100 µM | DLD-1 > 100 µM | KM-20L2 > 100 µM | HOP-18 43.2 µM

CCOC(=O)Cc1csc2[n+]1C(=O)/C(=C/c1cccc(OC)c1O)S2
inactive: BT-549 13.8 µM

C=C1C(=O)C23C(O)CC4C5(C)CCCC4(C(O)OC5)C2C(OC(C)=O)CC1C3O (stereo not drawn)
inactive: SNB-78 6.03 µM | M19-MEL 13.8 µM | DMS-114 4.51 µM | LXFL 529 2.61 µM | DLD-1 5.06 µM | KM-20L2 8.95 µM | HOP-18 16.7 µM

COc1ccc(CC2COc3cc(OC)cc(OC)c3C2=O)cc1 (stereo not drawn)
inactive: BT-549 44.2 µM

CN(/N=C/c1ccc(OCc2cccc(COc3ccc(C=O)cc3)n2)cc1)c1cnn(-c2ccc(Cl)cc2Cl)c(=O)c1Cl
inactive: BT-549 66.7 µM

O=C1C(c2ccc([N+](=O)[O-])cc2)=C(Cl)C(=O)c2c(O)cccc21
inactive: SNB-78 25.5 µM | M19-MEL 18.2 µM | BT-549 17.1 µM | DMS-114 7.31 µM | LXFL 529 9.51 µM | DLD-1 11 µM | HOP-18 5.05 µM

O=S(=O)(O)c1cc(/N=[N+](\[O-])c2cc(S(=O)(=O)O)c3ccccc3c2)cc2ccccc12
inactive: BT-549 19.5 µM

CS(=O)(=O)N1CC(CCl)c2ccc(O)cc21 (stereo not drawn)
inactive: BT-549 2.02 µM

CC(=O)N/C=C/c1cc(O)ccc1O
inactive: SNB-78 > 47.8 µM | M19-MEL 31.5 µM | LXFL 529 12.7 µM | DLD-1 27.2 µM | KM-20L2 40.8 µM | HOP-18 16.4 µM

Cc1ccc2c(c1)[n+]([O-])c(N)n[n+]2[O-]
inactive: BT-549 > 100 µM

From ChEMBL document CHEMBL1201862, “PubChem BioAssay data set” (2004)
